Measured values reported in ChEMBL document CHEMBL4665905, “2-Amino-N-heteroaryl-nicotimamides as Na1.8 Inhibitors” (ACS Med Chem Lett, 2020).

Biological target: Sodium channel protein type 10 subunit alpha (Homo sapiens, UniProt Q9Y5Y9)
Experiment: Inhibition of human Nav1.8 expressed in HEK293 cells by whole cell patch clamp assay
Assay type: cell-based

Sequence of Sodium channel protein type 10 subunit alpha (Q9Y5Y9 whole entry): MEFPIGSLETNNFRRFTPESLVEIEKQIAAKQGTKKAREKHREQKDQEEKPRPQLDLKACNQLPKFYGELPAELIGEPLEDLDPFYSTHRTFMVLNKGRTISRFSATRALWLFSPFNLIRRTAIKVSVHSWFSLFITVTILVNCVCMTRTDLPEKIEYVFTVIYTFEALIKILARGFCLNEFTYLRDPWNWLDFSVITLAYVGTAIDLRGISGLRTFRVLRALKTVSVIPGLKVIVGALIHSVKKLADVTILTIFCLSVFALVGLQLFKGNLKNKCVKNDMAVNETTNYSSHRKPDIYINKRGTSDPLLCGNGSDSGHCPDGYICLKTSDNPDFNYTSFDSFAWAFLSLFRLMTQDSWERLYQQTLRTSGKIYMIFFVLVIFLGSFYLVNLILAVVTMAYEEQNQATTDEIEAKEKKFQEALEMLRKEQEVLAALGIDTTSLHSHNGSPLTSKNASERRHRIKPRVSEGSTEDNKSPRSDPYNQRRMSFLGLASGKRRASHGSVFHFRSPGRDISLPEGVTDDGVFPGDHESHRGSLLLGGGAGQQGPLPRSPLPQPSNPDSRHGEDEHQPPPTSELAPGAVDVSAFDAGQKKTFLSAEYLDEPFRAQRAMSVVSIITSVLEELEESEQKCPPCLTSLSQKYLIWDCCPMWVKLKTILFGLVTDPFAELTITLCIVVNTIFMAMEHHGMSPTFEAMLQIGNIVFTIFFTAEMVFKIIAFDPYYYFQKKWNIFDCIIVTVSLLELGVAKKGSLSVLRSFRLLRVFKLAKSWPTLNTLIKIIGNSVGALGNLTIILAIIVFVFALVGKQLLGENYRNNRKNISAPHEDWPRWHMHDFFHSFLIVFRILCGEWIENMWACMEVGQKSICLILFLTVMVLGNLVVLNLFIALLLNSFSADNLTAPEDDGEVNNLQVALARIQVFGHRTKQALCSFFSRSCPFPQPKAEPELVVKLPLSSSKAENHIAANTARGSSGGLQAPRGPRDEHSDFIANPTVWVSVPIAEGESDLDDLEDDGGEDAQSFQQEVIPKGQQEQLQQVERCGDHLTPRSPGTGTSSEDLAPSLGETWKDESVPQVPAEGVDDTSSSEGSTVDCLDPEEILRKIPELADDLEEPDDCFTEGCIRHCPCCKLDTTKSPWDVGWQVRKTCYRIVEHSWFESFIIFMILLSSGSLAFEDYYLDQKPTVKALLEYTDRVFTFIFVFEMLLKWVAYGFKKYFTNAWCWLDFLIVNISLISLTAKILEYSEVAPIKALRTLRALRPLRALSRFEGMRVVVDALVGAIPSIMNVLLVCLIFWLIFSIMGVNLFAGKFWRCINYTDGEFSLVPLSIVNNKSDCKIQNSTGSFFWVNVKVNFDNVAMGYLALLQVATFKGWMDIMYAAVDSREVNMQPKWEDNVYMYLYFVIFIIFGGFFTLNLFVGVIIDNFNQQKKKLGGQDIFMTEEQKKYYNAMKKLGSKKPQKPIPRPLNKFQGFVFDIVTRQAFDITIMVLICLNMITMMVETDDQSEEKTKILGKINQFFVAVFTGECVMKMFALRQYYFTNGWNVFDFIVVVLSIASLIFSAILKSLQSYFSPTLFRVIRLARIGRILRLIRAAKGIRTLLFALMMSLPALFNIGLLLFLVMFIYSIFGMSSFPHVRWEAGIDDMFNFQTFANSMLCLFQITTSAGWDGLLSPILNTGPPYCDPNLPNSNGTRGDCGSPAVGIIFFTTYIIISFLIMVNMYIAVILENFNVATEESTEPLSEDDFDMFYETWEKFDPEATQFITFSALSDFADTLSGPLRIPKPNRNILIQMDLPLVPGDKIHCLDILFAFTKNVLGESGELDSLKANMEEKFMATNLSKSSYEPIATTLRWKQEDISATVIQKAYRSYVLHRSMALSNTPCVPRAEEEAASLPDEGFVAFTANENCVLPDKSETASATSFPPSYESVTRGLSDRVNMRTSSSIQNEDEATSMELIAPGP

NS(=O)(=O)c1cc(NC(=O)c2cc(Cl)cnc2N2CCCC(F)(F)CC2)ccn1
IC50: 3.9 nM
